The IC50 is the concentration that inhibits the measured activity by half. Lower therefore signals greater potency in that assay.

SMILES strings stand for the structures. “And” between values parts separate entries of the source, which are not always exact repeats. Equal values may be shown once.

The source of these data is ChEMBL document CHEMBL5728225, “Modulators of P97 AAA ATPase activity” (2021).

The assay in a line: Biomol Green Assay: Biomol Green (Enzo) […] formed from a biochemical reaction. Because of its high sensitivity, the assay is suitable for monitoring enzyme activities at very early substrate conversions requiring very low amount of enzymes.
`Cc1cc(OCc2cnc(SC3C=CCCC3)n2-c2cccnc2)ccc1C#CCOC(=O)NCCN1CCN(C(C)C)CC1` (stereo not drawn) gave an IC50 of 26 nM.

On to `Cc1cc(OCc2nnc(CC3CCCC3)n2-c2cccnc2)ccc1C#CCNC(=O)OC(C)(C)C`, for which the IC50 was found to be 260 nM.

`Cc1cc(OCc2nnc(SC3C=CCCC3)n2-c2cccnc2)ccc1C#CCOC(=O)NN1CCN(C)CC1` (stereo not drawn): the IC50 is 25 nM and 15 nM.
